This note sets out measurements from publication PMC5479826, “Determination of Crucial Immunogenic Epitopes in Major Peanut Allergy Protein, Ara h2, via Novel Nanoallergen Platform” (Scientific Reports, 2017).

In this assay the test system is patient sera IgEs. Put plainly: ELISA binding assay with patient sera. On the set-up: species or system human. The method, then:
A high binding 96 well plate was incubated with anti-Human IgE in Carbonate-Bicarbonate buffer (Sigma) at a concentration of 3 nM for 16 hours at 4 °C. Plate was washed with washing buffer (PBS with 0.5% tween 20) and then blocked with blocking buffer (5% BSA in PBS with 0.1% tween 20) for 1 hr at room temperature. Plate was washed with automatic plate washer (AquaMax 2000), then varying concentrations of either Ara h2-Biotin (Indoors Biotechnologies) or FITC-peptide 2 conjugate in blocking buffer for 1 hour. Plate was washed again and then either streptavidin-HRP (1:5 000 dilution) or anti-FITC HRP IgG (1:5000 dilution) was added in blocking buffer. After another washing step, Amplex Red substrate was added (Invitrogen) and plate fluorescence was read at 5 minute intervals according to manufacturer’s instructions.
A general note: In an ELISA, binding on a coated surface is turned into a signal by an enzyme label.

ERDPYSP^OHSQDPYSP^OHS [Epitope 2] registered an EC50 (Fig. S-2, patient serum 1 on anti-IgE coated plate, Ara h 2-Biotin or FITC-tagged epitope 2 peptide) of 465 ± 200 nM. For the same substance, the “Binding to patient sera IgEs in ELISA (detectability)” value (serum 1, result in words) is given as “detectable binding”.

One may read the EC50 as the concentration that produces a half-maximal response. Low readings indicate greater potency, high ones weaker potency.
